Data on eleven compounds can be found in patent US6586442B2, “Benzofurane derivatives, their preparation process, their use as medicaments and the pharmaceutical compositions containing them” (priority 1999, dated 2003).

Read-outs that look alike come from different tables or passages of the source.

This assay deals with human αvβ3 receptor (Homo sapiens, UniProt P05106+P06756). Description: Kistrin/Vitronectin Receptor (αvβ3) ELISA test. The assay is classed as binding. As for the experimental part: Kistrin/Vitronectin Receptor (αvβ3) ELISA Test Protocol:
96-well MaxiSorp plates are coated overnight at […] with 100 μl of Kistrin at 1 μg/ml (dilution in coating buffer: 0.05M (carbonate)/NaOH pH 9.6. The next day, the wells are emptied and the ligands (kistrin) are then fixed (fixation buffers: PBS containing 0.5% BSA (pH=7.4)) for 1 hour at ambient temperature under gentle agitation of 125 rpm. The wells are washed six times (washing buffer: PBS containing 0.05% Tween 20 (pH 7.7) then the following is added per well and in this order:
40 μl of incubation buffer
10 μl of the dilution of the product to be tested (the products are diluted in a 50:50 DMSO/water mixture)
50 μl of human αvβ3 receptor (cf Pytel et al. Methods Enzymol. (1987) 144 (Dilution in incubation buffer, adapted according to the batch of receptor and according to the ligand). The ligand, the αvβ3 receptor and the products to be studied are incubated for 3 hours at ambient temperature with gentle agitation of 125 rpm.
The wells are again washed six times, then incubated for 2 hours at ambient temperature with gentle agitation of 125 rpm, in the presence of 100 μl of anti-receptor antibody coupled to a peroxidase (The 4B12-HRP antibody is diluted in incubation buffer (50 mM TRIS pH 7.4; 0.5% BSA; 0.05% Tween 20; 1 mM MnCl2; 50 μM CaCl2; 50 μM MgCl2; 100 mM NaCl). The dilution is to be adapted according to the batch of receptor.
The wells are then washed six times before measurement of the ligand-receptor bond is carried out using a peroxidase developer kit (TBM Microwell Peroxidase Substrate System Kirkegaard; Ref cat 50-76-00).
This kit contains a flask A of substrate (3,3′,5,5′-tetramethylebenzidine at 0.4 g/l) and a flask B (H2O2 to 0.02% in Citrate/Citric acid). Extemporaneously, one volume of A is mixed with one volume of B, then the reaction mixture is distributed at a rate of 100 μl/wells.
The enzymatic reaction develops between 6 to 10 minutes for Kistrin/αvβ3 then its development is stopped by the addition of 100 μl of 1M phosphoric acid. The optical density is determined at 450 nm.
Expression of the results
The following curve is plotted: the bond percentage as a function of the logarithm of each concentration of the tested product.
For each product IC50 is determined according to the following formula: IC50=(B0+Bmin)/2
B0=Maximum bond in the absence of any product
Bmin=Minimum bond in the presence of the highest concentration of the product.
(An ELISA detects its analyte on a solid surface through an enzyme-linked reagent.)

Where [1] appears, read: Kistrin-coated plates, human αvβ3 receptor, 3 hours at ambient temperature, OD 450 nm, read-out: K/VnR IC50.

human αvβ3 receptor, sequence (P06756 31-889 limits assumed): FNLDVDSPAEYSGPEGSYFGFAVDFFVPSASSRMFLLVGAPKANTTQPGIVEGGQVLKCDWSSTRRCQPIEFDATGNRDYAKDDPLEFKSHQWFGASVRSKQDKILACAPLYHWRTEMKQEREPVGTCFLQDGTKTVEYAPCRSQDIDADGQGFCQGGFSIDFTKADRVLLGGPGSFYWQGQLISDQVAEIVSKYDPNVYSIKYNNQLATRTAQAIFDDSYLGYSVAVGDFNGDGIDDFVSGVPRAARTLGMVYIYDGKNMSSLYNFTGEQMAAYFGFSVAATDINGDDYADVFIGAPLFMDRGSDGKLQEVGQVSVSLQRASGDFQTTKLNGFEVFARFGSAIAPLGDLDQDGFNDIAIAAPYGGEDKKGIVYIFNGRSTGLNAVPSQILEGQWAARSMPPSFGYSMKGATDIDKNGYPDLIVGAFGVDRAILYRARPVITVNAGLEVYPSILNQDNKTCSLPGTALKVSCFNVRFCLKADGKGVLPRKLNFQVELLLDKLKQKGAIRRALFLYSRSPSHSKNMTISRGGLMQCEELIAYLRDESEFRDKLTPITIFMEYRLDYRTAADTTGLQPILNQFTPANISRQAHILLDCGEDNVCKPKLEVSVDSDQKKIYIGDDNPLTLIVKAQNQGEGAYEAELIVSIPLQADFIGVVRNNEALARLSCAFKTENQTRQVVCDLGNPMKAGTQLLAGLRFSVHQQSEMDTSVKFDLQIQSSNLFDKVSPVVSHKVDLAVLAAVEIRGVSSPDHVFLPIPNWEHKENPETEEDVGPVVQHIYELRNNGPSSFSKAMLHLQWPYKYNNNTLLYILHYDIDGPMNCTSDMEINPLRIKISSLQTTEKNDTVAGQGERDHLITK
human αvβ3 receptor, sequence (P06756 891-1048 limits assumed): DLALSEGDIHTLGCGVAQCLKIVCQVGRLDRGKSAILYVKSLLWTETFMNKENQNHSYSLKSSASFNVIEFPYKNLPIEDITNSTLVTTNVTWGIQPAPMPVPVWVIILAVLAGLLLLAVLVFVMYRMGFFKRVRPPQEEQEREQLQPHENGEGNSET
human αvβ3 receptor, sequence (P05106 27-788): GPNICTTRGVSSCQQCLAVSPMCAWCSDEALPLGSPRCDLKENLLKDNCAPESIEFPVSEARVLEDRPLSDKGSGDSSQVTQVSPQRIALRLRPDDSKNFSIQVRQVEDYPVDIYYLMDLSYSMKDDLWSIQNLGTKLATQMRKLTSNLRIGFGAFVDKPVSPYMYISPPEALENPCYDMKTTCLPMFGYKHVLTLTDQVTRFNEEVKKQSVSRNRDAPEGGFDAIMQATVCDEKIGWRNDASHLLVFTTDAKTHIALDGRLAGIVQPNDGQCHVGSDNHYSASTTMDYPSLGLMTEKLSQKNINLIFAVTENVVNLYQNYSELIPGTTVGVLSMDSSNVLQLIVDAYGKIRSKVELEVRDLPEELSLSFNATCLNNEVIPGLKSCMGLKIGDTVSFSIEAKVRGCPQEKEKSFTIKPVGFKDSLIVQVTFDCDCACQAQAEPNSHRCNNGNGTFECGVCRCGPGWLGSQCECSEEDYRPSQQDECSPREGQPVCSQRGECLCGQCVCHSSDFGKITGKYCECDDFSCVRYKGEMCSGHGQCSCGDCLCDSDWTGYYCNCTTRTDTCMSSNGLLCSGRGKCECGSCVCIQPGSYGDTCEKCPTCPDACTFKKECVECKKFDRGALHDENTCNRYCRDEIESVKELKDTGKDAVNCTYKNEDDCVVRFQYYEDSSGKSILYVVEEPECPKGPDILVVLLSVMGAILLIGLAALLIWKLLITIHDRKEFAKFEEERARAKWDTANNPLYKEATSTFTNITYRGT

On to `O=C(CCc1ccc2oc(CC(NC(=O)OCc3ccccc3)C(=O)O)cc2c1)NC1=NCCCN1` (stereo not drawn) [Example 1, 5-[3-oxo-3-[(1,4,5,6-tetrahydro-2-pyrimidinyl)amino)propyl]-α-[[(phenylmethoxy)carbonyl]-amino]-2-benzofuranepropanoic acid], for which the IC50 under setting [1] was 9 nM.
Same read-out and setting: the result for `O=C(CCc1ccc2oc(CC(NC(=O)OCC34CC5CC(CC(C5)C3)C4)C(=O)O)cc2c1)NC1=NCCCN1` (stereo not drawn) [Example 5, Mono(trifluoroacetate) of 5-[3-oxo-3-[(1,4,5,6-tetrahydro-2-pyrimidinyl)amino]propyl]-α-[[[(tricyclo[3.3.1.1^3,7]dec-1-yl)methoxy]carbonyl]amino]-2-benzofuranpropanoic acid] reads 45 nM; that for `O=C(CCc1ccc2oc(CC(NS(=O)(=O)NC(=O)OCC34CC5CC(CC(C5)C3)C4)C(=O)O)cc2c1)NC1=NCCCN1` (stereo not drawn) [Example 6, 5-[3-oxo-3-[(1,4,5,6-tetrahydro-2-pyrimidinyl)amino]-propyl]-α-[[[[[(tricyclo [2.3.1.1^3,7]dec-1-yl)methoxy]-carbonyl]amino]sulphonyl]amino]-2-benzofuranpropanoic acid], 65 nM.
On the same count and under the same terms, the result for `O=C(CCc1ccc2oc(CC(NS(=O)(=O)NC(=O)OCc3ccccc3)C(=O)O)cc2c1)NC1=NCCCN1` (centres unmarked) [Example 7] reads 10 nM; that for `O=C(CCc1ccc2oc(CC(NS(=O)(=O)NCc3ccccc3)C(=O)O)cc2c1)NC1=NCCCN1` (centres unmarked) [Example 8, Mono(trifluoroacetate) ofα-[[[(phenylmethyl)-amino]sulphonyl]amino]-5-[3-oxo-3-[(1,4,5,6-tetrahydro-2-pyrimidinyl)amino]propyl]-2-benzofuranpropanoic acid], 8.7 nM.
Same read-out and setting: to `CC(C)(C)c1ccc(S(=O)(=O)NC(Cc2cc3cc(CCC(=O)NC4=NCCCN4)ccc3o2)C(=O)O)cc1` (stereo not drawn) [Example 9, α-[[[4-(1,1-dimethylethyl)phenyl]sulphonyl]amino]-5-(3-oxo-3-[(1,4,5,6-tetrahydro-2-pyrimidinyl)amino]propyl]-2-benzofuranpropanoic acid] belongs 15 nM.
For `CC(C)c1ccc(S(=O)(=O)NC(Cc2cc3cc(CCC(=O)NC4=NCCCN4)ccc3o2)C(=O)O)cc1` (stereo not drawn) [Example 10, α-[[[4-(1-methylethyl)phenyl]sulphonyl]amino]-5-(3-oxo-3-[(1,4,5,6-tetrahydro-2-pyrimidinyl)amino]propyl]-2-benzofuranpropanoic acid], under setting [1], the IC50 was found to be 9.1 nM.
With `CCCS(=O)(=O)NC(Cc1cc2cc(CCC(=O)NC3=NCCCN3)ccc2o1)C(=O)O` (centres unmarked) [Example 11], the IC50 under setting [1] was 5.7 nM.
Same read-out and setting: the result for `CS(=O)(=O)NC(Cc1cc2cc(CCC(=O)NC3=NCCCN3)ccc2o1)C(=O)O` (centres unmarked) [Example 12] reads 6.7 nM.
Regarding `O=C(CCc1ccc2oc(CC(NS(=O)(=O)c3cccc4ccccc34)C(=O)O)cc2c1)NC1=NCCCN1` (stereo not drawn) [Example 13, α-[(1-naphthalenylsulphonyl)amino]-5-[3-oxo-3-[(1,4,5,6-tetrahydro-2-pyrimidinyl)amino]propyl]—2-benzofuranpropanoic acid], the IC50 under setting [1] is 5.5 nM.
As to `CC(C)OC(=O)C(Cc1cc2cc(CCC(=O)NC3=NCCCN3)ccc2o1)NS(=O)(=O)c1cccc2ccccc12` (centres unmarked) [Example 14], the IC50 worked out at 3700 nM.
